SMILES | logP
Nc1ccc(-c2nc3ccc(Br)cc3s2)cc1 | 2.87
Nc1ccc(-c2nc3ccccc3s2)cc1I | 3.17
COC(=O)c1ccc2nc(-c3ccc(N)cc3)sc2c1 | 2.07
CNc1ccc(-c2nc3ccc(OC)cc3s2)cc1I | 3.8
Oc1ccc2nc(-c3ccc(O)c(I)c3)sc2c1 | 1.09
Nc1ccc(-c2nc3ccccc3s2)cc1 | 1.98
Nc1ccc(-c2nc3ccc([N+](=O)[O-])cc3s2)cc1 | 2.21
Oc1ccc(-c2nc3ccccc3s2)cc1 | 1.86
CNc1ccc(-c2nc3ccc(O)cc3s2)cc1I | 2.35
Nc1ccc(-c2nc3ccc(Br)cc3s2)cc1I | 4.11
CNc1ccc(-c2nc3ccc([N+](=O)[O-])cc3s2)cc1I | 4.08
Nc1ccc(-c2nc3ccc([N+](=O)[O-])cc3s2)cc1I | 3.33
Nc1ccc(-c2nc3ccc(O)cc3s2)cc1I | 1.65
CNc1ccc(-c2nc3ccc(Br)cc3s2)cc1I | 4.86
COC(=O)c1ccc2nc(-c3ccc(N)c(I)c3)sc2c1 | 3.29
CNc1ccc(-c2nc3ccc([N+](=O)[O-])cc3s2)cc1 | 2.96
Oc1ccc(-c2nc3ccccc3s2)cc1I | 2.22
CNc1ccc(-c2nc3ccc(Br)cc3s2)cc1 | 3.64
CNc1ccc(-c2nc3ccccc3s2)cc1I | 3.9

Next, values leading:

logP | SMILES
2.95 | COc1ccc(-c2nc3ccc(N)c(I)c3s2)cc1
1.86 | COCOc1ccc2nc(-c3ccc(N)cc3)sc2c1
1.76 | COc1ccc(-c2nc3ccc(N)cc3s2)cc1
3.03 | COCOc1ccc2nc(-c3ccc(N)c(I)c3)sc2c1
1.8 | COc1ccc2nc(-c3ccc(O)cc3)sc2c1
2.31 | COc1ccc2nc(-c3ccc(O)c(I)c3)sc2c1
1.6 | Nc1ccc2nc(-c3ccc(O)cc3)sc2c1I
2.49 | COc1ccc(-c2nc3ccc(O)c(I)c3s2)cc1
2.58 | CNc1ccc(-c2nc3ccc(OC)cc3s2)cc1
1.01 | Oc1ccc(-c2nc3ccc(O)c(I)c3s2)cc1
1.75 | COc1ccc(-c2nc3ccc(O)cc3s2)cc1
3.08 | COc1ccc2nc(-c3ccc(N)c(I)c3)sc2c1
1.87 | COc1ccc2nc(-c3ccc(N)cc3)sc2c1
